Laboratory results taken from US10294212B2 (CURADEV PHARMA PRIVATE LTD., priority 2013, dated 2019).
Where a name gives a salt, the structure may show the parent alone.

Experiments:
IDO1 in HeLa cells = IDO1 in HeLa cells (Homo sapiens (Human), UniProt P14902); assay: HeLa cell based IDO1 assay (IFNγ-induced, KYN in supernatant)
Procedure, shortened: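 HeLa cells were induced overnight with IFNγ (50 ng/mL), washed, then exposed to compound (typically 10 μM–1 nM) in HBSS with 80 μM L-tryptophan. Supernatant was TCA-treated at 65 °C for 15 min to convert N-formylkynurenine, and KYN was measured by HPLC-UV at 360 nm. IC50 came from nonlinear regression against a 1% DMSO control.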

[1] = target: Human indoleamine 2,3-dioxygenase1 (hIDO1) (Homo sapiens (Human), UniProt P14902); assay: In-vitro IDO1 enzyme assay (conversion of L-tryptophan to KYN); format: biochemical; conditions: read-out: IC50 (IDO1) Enz
Sequence of Human indoleamine 2,3-dioxygenase1 (hIDO1) (P14902 whole entry): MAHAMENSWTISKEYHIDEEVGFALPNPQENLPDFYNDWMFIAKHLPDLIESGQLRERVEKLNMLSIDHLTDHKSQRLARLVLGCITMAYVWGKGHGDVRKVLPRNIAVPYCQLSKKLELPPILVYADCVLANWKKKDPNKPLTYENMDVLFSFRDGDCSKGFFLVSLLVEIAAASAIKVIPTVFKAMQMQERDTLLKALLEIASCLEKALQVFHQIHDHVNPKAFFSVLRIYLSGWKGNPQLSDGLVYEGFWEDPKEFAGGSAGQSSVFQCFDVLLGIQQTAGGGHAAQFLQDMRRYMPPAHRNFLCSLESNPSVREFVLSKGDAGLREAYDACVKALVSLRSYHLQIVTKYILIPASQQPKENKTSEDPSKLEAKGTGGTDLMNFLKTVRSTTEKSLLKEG
Procedure, shortened: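 His-tagged hIDO1 (10 nM, E. coli-expressed) incubated with 30 μM L-tryptophan, 20 mM ascorbate, 10 μM methylene blue and 100 μg/mL catalase in 50 mM potassium phosphate pH 6.5, 30 min at 37 °C. TCA stop, then 65 °C hydrolysis; KYN measured by HPLC-UV at 360 nm or LC/MS/MS. IC50 by nonlinear regression versus 1% DMSO control.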

[2] = target: Human TDO (hTDO)-transfected CHO-K1 cells (Homo sapiens (Human), UniProt P48775); assay: CHO-K1 cell based TDO assay; conditions: hTDO cellular assay
Sequence of Human TDO (hTDO)-transfected CHO-K1 cells (P48775 whole entry): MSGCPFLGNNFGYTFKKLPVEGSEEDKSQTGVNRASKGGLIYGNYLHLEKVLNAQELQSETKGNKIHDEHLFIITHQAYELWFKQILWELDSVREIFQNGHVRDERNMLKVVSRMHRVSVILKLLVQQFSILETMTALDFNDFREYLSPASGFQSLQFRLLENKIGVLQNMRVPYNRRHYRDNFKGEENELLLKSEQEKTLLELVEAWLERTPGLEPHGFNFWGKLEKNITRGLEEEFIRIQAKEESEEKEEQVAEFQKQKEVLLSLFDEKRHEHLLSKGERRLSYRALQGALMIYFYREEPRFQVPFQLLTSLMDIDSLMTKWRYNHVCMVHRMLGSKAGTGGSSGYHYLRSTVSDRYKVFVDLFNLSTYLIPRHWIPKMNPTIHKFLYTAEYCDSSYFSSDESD
Procedure, shortened: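 Stably hTDO-expressing CHO-K1 cells were exposed to compounds (typically 31 μM to 10 nM) in HBSS with 80 μM L-tryptophan for 2 h. TCA-treated supernatant was heated at 65° C for 15 min to convert N-formylkynurenine, then kynurenine was quantified by LC/MS/MS. IC50 came from percent inhibition versus DMSO control.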

Sequence of IDO1 in HeLa cells (P14902 whole entry): as the sequence (P14902 whole entry) above

| SMILES | IC50 (IDO1 in HeLa cells) [nM] | IC50 [1] [nM] | IC50 [2] [nM] |
| --- | --- | --- | --- |
| Cc1ncc(C)c2c(Nc3ccc(F)c(Cl)c3)c(N)oc12 [Compound 72, N^3-(3-chloro-4-fluorophenyl)-4,7-dimethylfuro[2,3-c]pyridine-2,3-diamine] | 200 to 1000 | 200 to 1000 | 500 to 2000 |
| N#Cc1ccc2c(Nc3ccccc3Cl)c(N)oc2c1 [Compound 116, 2-Amino-3-((2-chlorophenyl)amino)benzofuran-6-carbonitrile] | 200 to 1000 | > 1000 | > 2000 |
| NC(=O)c1ccc(-c2nccc3c(Nc4ccc(F)c(Cl)c4)c(N)oc23)cc1 [Compound 151, 4-(2-Amino-3-((3-chloro-4-fluorophenyl)amino)furo[2,3-c]pyridin-7-yl)benzamide] | < 200 | < 200 | 500 to 2000 |
| Nc1oc2c(-c3ccnc(C(=O)NCCN4CCOCC4)c3)nccc2c1Nc1ccc(F)c(Cl)c1 [Compound 274, 4-(2-Amino-3-((3-chloro-4-fluorophenyl)amino)furo[2,3-c]pyridin-7-yl)-N-(2-morpholinoethyl)picolinamide] | < 200 | < 200 | 500 to 2000 |
| Cc1cc(-c2nccc3c(Nc4ccc(F)c(Cl)c4)c(N)oc23)cc(C)n1 [Compound 164, N^3-(3-Chloro-4-fluorophenyl)-7-(2,6-dimethylpyridin-4-yl)furo[2,3-c]pyridine-2,3-diamine] | < 200 | < 200 | > 2000 |
| O=C(Nc1oc2cnccc2c1Nc1ccc(F)c(Cl)c1)OCc1ccccc1 [Compound 139, Benzyl (3-((3-chloro-4-fluorophenyl)amino)furo[2,3-c]pyridin-2-yl)carbamate] | > 1000 | > 1000 | 500 to 2000 |
| Nc1sc2ccc(Cl)cc2c1Nc1ccc(F)cc1 [Compound 131, 5-Chloro-N^3-(4-fluorophenyl)benzo[b]thiophene-2,3-diamine] | 200 to 1000 | 200 to 1000 | 500 to 2000 |
| N#Cc1nccc2c(Nc3ccc(F)c(F)c3)c(N)oc12 [Compound 185, 2-Amino-3-((3,4-difluorophenyl)amino)furo[2,3-c]pyridine-7-carbonitrile] | < 200 | 200 to 1000 | < 500 |
| Nc1oc2c(-c3ccnc(C(=O)N4CCCCC4)c3)nccc2c1Nc1ccc(F)c(Cl)c1 [Compound 271, (4-(2-Amino-3-((3-chloro-4-fluorophenyl)amino)furo[2,3-c]pyridin-7-yl)pyridin-2-yl)(piperidin-1-yl)methanone] | < 200 | < 200 | 500 to 2000 |
| COc1cc2c(Nc3ccc(F)c(Cl)c3)c(N)oc2c(C)n1 [Compound 85, N^3-(3-Chloro-4-fluoro-phenyl)-5-methoxy-7-methyl-furo[2,3-c]pyridine-2,3-diamine] | < 200 | < 200 | 500 to 2000 |
| Nc1sc2ccccc2c1Nc1ccc(F)c(Cl)c1 [Compound 117, N^3-(3-Chloro-4-fluorophenyl)benzo[b]thiophene-2,3-diamine] | < 200 | < 200 | < 500 |
| Nc1oc2c(F)nc(F)cc2c1Nc1ccc(F)c(Cl)c1 [Compound 190, N^3-(3-Chloro-4-fluorophenyl)-5,7-difluorofuro[2,3-c]pyridine-2,3-diamine] | < 200 | < 200 | 500 to 2000 |
| Nc1oc2cnc(F)cc2c1Nc1cccc(Cl)c1 [Compound 220, N^3-(3-Chlorophenyl)-5-fluorofuro[2,3-c]pyridine-2,3-diamine] | < 200 | < 200 | < 500 |
| Nc1sc2ccccc2c1Nc1ccc(F)cc1 [Compound 231, N^3-(4-Fluorophenyl)benzo[b]thiophene-2,3-diamine] | 200 to 1000 | 200 to 1000 | > 2000 |
| N#Cc1ccc(-c2nccc3c(Nc4ccc(F)c(Cl)c4)c(N)oc23)cc1 [Compound 149, 4-(2-Amino-3-((3-chloro-4-fluorophenyl)amino)furo[2,3-c]pyridin-7-yl)benzonitrile] | < 200 | < 200 | 500 to 2000 |
| Nc1oc2cnccc2c1Nc1cc(F)c(F)c(Br)c1 [Compound 22, N^3-(3-Bromo-4,5-difluorophenyl)furo[2,3-c]pyridine-2,3-diamine] | 200 to 1000 | > 1000 | > 2000 |
| CCCc1nccc2c(Nc3ccc(F)c(C(F)(F)F)c3)c(N)oc12 [Compound 79, N^3-(4-Fluoro-3-(trifluoromethyl)phenyl)-7-propylfuro[2,3-c]pyridine-2,3-diamine] | < 200 | < 200 | 500 to 2000 |

| SMILES | IC50 (IDO1 in HeLa cells) [nM] | IC50 [1] [nM] | IC50 [2] [nM] |
| --- | --- | --- | --- |
| CCCNC(=O)c1cc(-c2nccc3c(Nc4ccc(F)c(Cl)c4)c(N)oc23)ccn1 [Compound 253, 4-(2-Amino-3-((3-chloro-4-fluorophenyl)amino)furo[2,3-c]pyridin-7-yl)-N-propylpicolinamide] | < 200 | < 200 | > 2000 |
| Nc1oc2c(-c3ccncc3)nccc2c1Nc1cc(F)cc(F)c1 [Compound 187, N^3-(3,5-Difluorophenyl)-7-(pyridin-4-yl)furo[2,3-c]pyridine-2,3-diamine] | < 200 | 200 to 1000 | < 500 |
| COc1ccc(Cl)cc1Nc1c(N)oc2cnccc12 [Compound 25, N^3-(5-Chloro-2-methoxyphenyl)furo[2,3-c]pyridine-2,3-diamine] | 200 to 1000 | > 1000 | 500 to 2000 |
| Nc1oc2cnccc2c1Nc1cccc(C(F)F)c1 [Compound 65, N^3-(3-(Difluoromethyl)phenyl)furo[2,3-c]pyridine-2,3-diamine] | < 200 | < 200 | 500 to 2000 |
| Nc1oc2cnccc2c1Nc1ccc(F)c(Cl)c1F [Compound 44, N^3-(3-Chloro-2,4-difluorophenyl)furo[2,3-c]pyridine-2,3-diamine] | < 200 | 200 to 1000 | 500 to 2000 |
| C#Cc1cccc(Nc2c(N)oc3cnccc23)c1 [Compound 68, N^3-(3-Ethynylphenyl)furo[2,3-c]pyridine-2,3-diamine] | < 200 | 200 to 1000 | 500 to 2000 |
| CCc1ccccc1Nc1c(N)sc2ccccc12 [Compound 232, N^3-(2-Ethylphenyl)benzo[b]thiophene-2,3-diamine hydrochloride] | > 1000 | > 1000 | > 2000 |
| CNC(=O)c1cc(-c2nccc3c(Nc4ccc(F)c(Cl)c4)c(N)oc23)ccn1 [Compound 195, 4-(2-Amino-3-((3-chloro-4-fluorophenyl)amino)furo[2,3-c]pyridin-7-yl)-N-methylpicolinamide] | < 200 | < 200 | 500 to 2000 |
| Cc1cc(-c2nccc3c(Nc4cccc(F)c4)c(N)oc23)ccn1 [Compound 243, N^3-(3-Fluorophenyl)-7-(2-methylpyridin-4-yl)furo[2,3-c]pyridine-2,3-diamine] | < 200 | < 200 | < 500 |
| CCCCNC(=O)c1cc(-c2nccc3c(Nc4ccc(F)c(Cl)c4)c(N)oc23)ccn1 [Compound 250, 4-(2-Amino-3-((3-chloro-4-fluorophenyl)amino)furo[2,3-c]pyridin-7-yl)-N-butylpicolinamide] | < 200 | < 200 | > 2000 |
| Cc1ccc(Nc2c(N)oc3cnccc23)cc1 [Compound 40, N^3-(p-tolyl)Furo[2,3-c]pyridine-2,3-diamine] | < 200 | > 1000 | 500 to 2000 |
| Nc1oc2c(-c3ccnc(C(F)(F)F)c3)nccc2c1Nc1ccc(F)c(Cl)c1 [Compound 268, N^3-(3-Chloro-4-fluorophenyl)-7-(2-(trifluoromethyl)pyridin-4-yl)furo[2,3-c]pyridine-2,3-diamine] | < 200 | < 200 | > 2000 |
| CC(C)(C)NC(=O)c1cc(-c2nccc3c(Nc4ccc(F)c(Cl)c4)c(N)oc23)ccn1 [Compound 251, 4-(2-Amino-3-((3-chloro-4-fluorophenyl)amino)furo[2,3-c]pyridin-7-yl)-N-(tert-butyl)picolinamide] | < 200 | < 200 | > 2000 |
| Nc1oc2c(-c3ccncc3)nccc2c1Nc1cccc(Cl)c1 [Compound 217, N^3-(3-Chlorophenyl)-7-(pyridin-4-yl)furo[2,3-c]pyridine-2,3-diamine] | < 200 | < 200 | < 500 |
| Nc1oc2c(-c3cccc4ccccc34)nccc2c1Nc1ccc(F)c(Cl)c1 [Compound 204, N^3-(3-Chloro-4-fluorophenyl)-7-(naphthalen-1-yl)furo[2,3-c]pyridine-2,3-diamine] | < 200 | < 200 | < 500 |
| Nc1oc2c(N3CCOCC3)nccc2c1Nc1ccc(F)c(Cl)c1 [Compound 245, N^3-(3-Chloro-4-fluorophenyl)-7-morpholinofuro[2,3-c]pyridine-2,3-diamine] | < 200 | < 200 | 500 to 2000 |
| Nc1oc2c(/C=C/c3ccccc3)nccc2c1Nc1ccc(F)c(Cl)c1 [Compound 280, N^3-(3-Chloro-4-fluorophenyl)-7-styrylfuro[2,3-c]pyridine-2,3-diamine] | < 200 | < 200 | 500 to 2000 |
